From article PMC3179182 (Bioorganic & medicinal chemistry letters, 2010)

What was measured:
mGlu5 [1] = target: T1, mGlu5 (Rattus norvegicus, UniProt P31424); details: phenylethynyl pyrimidine series; cited from earlier work
mGlu5 [2] = experiment: mGlu5 assays; type: cell-based; details: mode of mGlu5 pharmacology (NAM, PAM, Ago-PAM, Part. Antag., Inactive)
mGlu5 [3] = details: % partial; cited from earlier work
mGlu5 [4] = target: T1, mGlu5; experiment: mGlu5 assays; type: cell-based; details: NAM IC50 relative to 8
T1 sequence (P31424 21-1203): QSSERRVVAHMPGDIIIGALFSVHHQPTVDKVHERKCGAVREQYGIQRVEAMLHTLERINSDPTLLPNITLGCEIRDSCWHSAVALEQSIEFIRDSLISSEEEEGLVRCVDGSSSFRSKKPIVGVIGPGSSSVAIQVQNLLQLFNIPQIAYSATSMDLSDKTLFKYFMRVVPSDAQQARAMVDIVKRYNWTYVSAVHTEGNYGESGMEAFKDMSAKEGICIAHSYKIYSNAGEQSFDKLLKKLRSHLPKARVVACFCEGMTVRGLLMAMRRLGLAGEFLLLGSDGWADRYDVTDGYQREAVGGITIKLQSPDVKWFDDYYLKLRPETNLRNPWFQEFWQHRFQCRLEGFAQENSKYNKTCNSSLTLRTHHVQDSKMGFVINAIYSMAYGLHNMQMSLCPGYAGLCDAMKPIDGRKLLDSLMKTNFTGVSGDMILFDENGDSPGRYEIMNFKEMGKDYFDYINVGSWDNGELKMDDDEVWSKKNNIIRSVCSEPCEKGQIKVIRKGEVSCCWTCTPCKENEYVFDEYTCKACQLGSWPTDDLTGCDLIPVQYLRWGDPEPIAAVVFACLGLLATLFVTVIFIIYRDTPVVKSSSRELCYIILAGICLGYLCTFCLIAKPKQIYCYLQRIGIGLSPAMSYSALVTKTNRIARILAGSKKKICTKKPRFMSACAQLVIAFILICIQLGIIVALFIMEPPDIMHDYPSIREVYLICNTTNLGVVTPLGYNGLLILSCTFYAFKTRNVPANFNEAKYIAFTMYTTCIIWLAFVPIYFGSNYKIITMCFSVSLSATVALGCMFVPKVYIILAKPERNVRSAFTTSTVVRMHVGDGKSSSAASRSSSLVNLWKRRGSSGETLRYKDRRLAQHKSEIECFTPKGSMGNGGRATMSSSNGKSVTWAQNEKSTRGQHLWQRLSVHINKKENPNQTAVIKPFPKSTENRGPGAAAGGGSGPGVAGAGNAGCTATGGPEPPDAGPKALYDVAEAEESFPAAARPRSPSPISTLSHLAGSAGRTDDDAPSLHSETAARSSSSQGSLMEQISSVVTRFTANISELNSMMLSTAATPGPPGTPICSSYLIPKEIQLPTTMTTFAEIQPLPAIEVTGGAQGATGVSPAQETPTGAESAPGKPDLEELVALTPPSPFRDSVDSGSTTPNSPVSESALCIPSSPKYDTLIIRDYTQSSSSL

T1 sequence (P31424 21-1203): as above

Cc1cccc(C#Cc2cncnc2)c1 [compound 3]
IC50 (mGlu5 [1]): 7.5 nM

Cc1cccc(-c2noc([C@H]3CCCCN3C(=O)C3CCCCC3)n2)c1 [21d]
Pharmacology (mGlu5 [2]): full non-competitive antagonists (NAMs)

O=C(C1CCC1)N1CCC[C@H]1c1nc(-c2cccc(F)c2)no1 [(S)-23a]
Pharmacology (mGlu5 [2]): very weak PAM

O=C(C1CC1)N1CCCC[C@@H]1c1nc(-c2cccc(F)c2)no1 [22a]
Pharmacology (mGlu5 [2]): ago-PAMs

O=C(C1CCC1)N1CCC[C@@H]1c1nc(-c2cccc(F)c2)no1 [(R)-23a]
Pharmacology (mGlu5 [2]): potent mGlu5 PAM

O=C(C1CCC1)N1CCCC[C@@H]1c1nc(-c2cccc(F)c2)no1 [22b/20e]
Pharmacology (mGlu5 [2]; listed as 22b): pure PAM activity

C(#Cc1cncnc1)c1ccccc1 [compound 2]
partial antagonism (mGlu5 [3]): 71%

O=C(C1CCCC1)N1CCCC[C@@H]1c1nc(-c2cccc(F)c2)no1 [22c]
Pharmacology (mGlu5 [2]): ago-PAMs

Cc1cccc(-c2noc([C@H]3CCCCN3C(=O)C3CCCC3)n2)c1 [21c]
Pharmacology (mGlu5 [2]): partial antagonists

O=C(C1CCCCC1)N1CCCC[C@@H]1c1nc(-c2cccc(F)c2)no1 [22d]
Pharmacology (mGlu5 [2]): pure PAM activity

O=C(C1CCC1)N1CCC[C@H](c2nc(-c3cccc(Cl)c3)no2)C1 [(S)-15e]
increase in potency over 8 (mGlu5 [4]): ~ 41 fold

O=C(C1CCC1)N1CCCC1c1nc(-c2cccc(F)c2)no1 (stereo not shown) [23a]
Pharmacology (mGlu5 [2]): low micromolar PAMs

O=C(C1CCC1)N1CCCC1c1nc(-c2ccc(F)cc2)no1 (stereo not shown) [23b]
Pharmacology (mGlu5 [2]): low micromolar PAMs
